ChEMBL document CHEMBL5725601, “Tetrahydroisoquinoline derivatives useful as inhibitors of diacylglyceride O-acyltransferase 2” (2018)

Target: T1, Diacylglycerol O-acyltransferase 2 (Homo sapiens, UniProt Q96PD7)
T1 sequence (Q96PD7 whole entry): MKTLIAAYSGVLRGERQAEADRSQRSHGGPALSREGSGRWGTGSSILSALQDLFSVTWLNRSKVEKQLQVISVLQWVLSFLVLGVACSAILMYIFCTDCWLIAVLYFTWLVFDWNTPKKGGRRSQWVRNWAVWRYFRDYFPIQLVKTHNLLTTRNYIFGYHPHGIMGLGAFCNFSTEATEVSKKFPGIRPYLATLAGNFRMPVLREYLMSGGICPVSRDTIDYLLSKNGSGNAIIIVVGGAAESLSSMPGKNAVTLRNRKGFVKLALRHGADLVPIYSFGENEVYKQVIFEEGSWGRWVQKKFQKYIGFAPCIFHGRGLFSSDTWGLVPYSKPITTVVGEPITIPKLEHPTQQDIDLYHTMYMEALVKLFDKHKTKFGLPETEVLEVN
Test: Enzymatic Activity Assay: DGAT2 activity was determined by measuring the amount of enzymatic product triolein (1,2,3-Tri(cis-9-octadecenoyl)glycerol) using the membrane prep mentioned above. The assay was carried out in deep well 384 plates in a final volume of 40 μL at room temperature. The assay mixture contained the following: assay buffer (100 mM Tris·Cl, pH 7.0, 20 mM MgCl2, 5% ethanol), 25 μM of diolein, 10 μM of oleoyl-CoA and 10 ng/μL of DGAT2 membrane.

Row | IC50 [nM] | Compound
1 | 588 | CC(C)(C)NC(=O)N1CCc2c(-c3cccc(C(F)(F)F)c3)ccc(C(=O)NCc3nc(-c4ccccn4)no3)c2C1
2 | 326 | CC(C)(C)NC(=O)N1CCc2c(-c3cccc(C(F)(F)F)c3)ccc(C(=O)NCc3noc(-c4ccccc4)n3)c2C1
